Data: ChEMBL document CHEMBL1201862, “PubChem BioAssay data set” (2004)
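Where inhibition never reached the appropriate level, the endpoint shown equals the highest concentration tested. Otherwise, values were interpolated linearly from a five-concentration, 48-hour dose response in 96-well plates. Abbreviation: GI50, concentration required for 50% inhibition of growth.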 The source made the active and inactive calls. Rule as the data show it: active = GI50 up to about 1.1 µM and inactive = higher.

Columns and labels:
Experiment in all cases: inhibition of tumour cell growth, NCI panel, 48 h
786-0 = test system: 786-0
A549 = test system: A549
ACHN = test system: ACHN
BT-549 = test system: BT-549
CCRF-CEM = test system: CCRF-CEM
COLO 205 = test system: COLO 205
DU-145 = test system: DU-145
EKVX = test system: EKVX
HCC 2998 = test system: HCC 2998
HCT-116 = test system: HCT-116
HCT-15 = test system: HCT-15
HL-60 = test system: HL-60
HOP-62 = test system: HOP-62
HOP-92 = test system: HOP-92
HT-29 = test system: HT-29
Hs-578T = test system: Hs-578T
IGROV-1 = test system: IGROV-1
K562 = test system: K562
KM12 = test system: KM12
LOX IMVI = test system: LOX IMVI
M14 = test system: M14
MDA-MB-231 = test system: MDA-MB-231
MDA-MB-435 = test system: MDA-MB-435
MDA-N = test system: MDA-N
MOLT-4 = test system: MOLT-4
Malme-3M = test system: Malme-3M
NCI-H226 = test system: NCI-H226
NCI-H23 = test system: NCI-H23
NCI-H460 = test system: NCI-H460
NCI-H522 = test system: NCI-H522
NCI/ADR-RES = test system: NCI/ADR-RES
OVCAR-3 = test system: OVCAR-3
OVCAR-4 = test system: OVCAR-4
OVCAR-5 = test system: OVCAR-5
OVCAR-8 = test system: OVCAR-8
PC-3 = test system: PC-3
RPMI-8226 = test system: RPMI-8226
SF-268 = test system: SF-268
SF-295 = test system: SF-295
SF-539 = test system: SF-539
SK-MEL-28 = test system: SK-MEL-28
SK-MEL-2 = test system: SK-MEL-2
SK-MEL-5 = test system: SK-MEL-5
SK-OV-3 = test system: SK-OV-3
SN12C = test system: SN12C
SNB-19 = test system: SNB-19
SNB-75 = test system: SNB-75
SR = test system: SR
SW-620 = test system: SW-620
T47D = test system: T47D
TK-10 = test system: TK-10
U-251 = test system: U-251
UACC-257 = test system: UACC-257
UACC-62 = test system: UACC-62
UO-31 = test system: UO-31
A498 = test system: A498
CAKI-1 = test system: CAKI-1
RXF 393 = test system: RXF 393

In the case of `NCCCCCNOCCCN`, the GI50 (786-0) was > 100 µM (inactive), the GI50 (A549) was > 100 µM (inactive) and the GI50 (ACHN) was > 100 µM (inactive). For the same molecule, the GI50 (BT-549) was > 100 µM (inactive), the GI50 (CCRF-CEM) was > 100 µM (inactive) and the GI50 (COLO 205) was > 100 µM (inactive). For the same molecule, the GI50 (DU-145) was > 100 µM (inactive), the GI50 (EKVX) was > 100 µM (inactive) and the GI50 (HCC 2998) was > 100 µM (inactive). The GI50 (HCT-116) was > 100 µM (inactive), the GI50 (HCT-15) was > 100 µM and the GI50 (HL-60) was > 100 µM (inactive). For the same molecule, the GI50 (HOP-62) was > 100 µM (inactive), the GI50 (HOP-92) was > 100 µM (inactive) and the GI50 (HT-29) was > 100 µM (inactive). For the same molecule, the GI50 (Hs-578T) was > 100 µM (inactive), the GI50 (IGROV-1) was > 100 µM (inactive) and the GI50 (K562) was > 100 µM (inactive). The GI50 (KM12) was > 100 µM (inactive), the GI50 (LOX IMVI) was > 100 µM (inactive) and the GI50 (M14) was > 100 µM (inactive). For the same molecule, the GI50 (MDA-MB-231) was > 100 µM (inactive), the GI50 (MDA-MB-435) was > 100 µM (inactive) and the GI50 (MDA-N) was > 100 µM (inactive). The GI50 (MOLT-4) was > 100 µM (inactive), the GI50 (Malme-3M) was > 100 µM (inactive) and the GI50 (NCI-H226) was > 100 µM (inactive). The GI50 (NCI-H23) was > 100 µM (inactive), the GI50 (NCI-H460) was > 100 µM (inactive) and the GI50 (NCI-H522) was > 100 µM (inactive). The GI50 (NCI/ADR-RES) was > 100 µM (inactive), the GI50 (OVCAR-3) was > 100 µM (inactive) and the GI50 (OVCAR-4) was > 100 µM (inactive). For the same molecule, the GI50 (OVCAR-5) was > 100 µM (inactive), the GI50 (OVCAR-8) was > 100 µM (inactive) and the GI50 (PC-3) was > 100 µM (inactive). The GI50 (RPMI-8226) was > 100 µM (inactive), the GI50 (SF-268) was > 100 µM (inactive) and the GI50 (SF-295) was > 100 µM (inactive). For the same molecule, the GI50 (SF-539) was > 100 µM (inactive), the GI50 (SK-MEL-28) was > 100 µM (inactive) and the GI50 (SK-MEL-2) was > 100 µM (inactive). The GI50 (SK-MEL-5) was > 100 µM (inactive), the GI50 (SK-OV-3) was > 100 µM (inactive) and the GI50 (SN12C) was > 100 µM (inactive). The GI50 (SNB-19) was > 100 µM (inactive), the GI50 (SNB-75) was 63.1 µM (inactive) and the GI50 (SR) was > 100 µM (inactive). The GI50 (SW-620) was > 100 µM (inactive), the GI50 (T47D) was > 100 µM (inactive) and the GI50 (TK-10) was > 100 µM (inactive). For the same molecule, the GI50 (U-251) was > 100 µM (inactive), the GI50 (UACC-257) was > 100 µM (inactive) and the GI50 (UACC-62) was > 100 µM (inactive). For the same molecule, the GI50 (UO-31) was > 100 µM (inactive).
`CC(C)=CC1C(COC(=O)c2cc3c(cc2Cl)OCO3)C1(C)C` (configuration not stated) was tested, and the GI50 (786-0) was 37.8 µM (inactive), the GI50 (A498) was 31.5 µM (inactive) and the GI50 (A549) was 34.2 µM (inactive). The GI50 (ACHN) was 33.1 µM (inactive), the GI50 (BT-549) was 33 µM (inactive) and the GI50 (CAKI-1) was 22.7 µM (inactive). The GI50 (CCRF-CEM) was 26.9 µM (inactive), the GI50 (DU-145) was 28.4 µM (inactive) and the GI50 (EKVX) was 30.4 µM (inactive). For the same molecule, the GI50 (HCT-116) was 33.4 µM (inactive), the GI50 (HCT-15) was 29 µM and the GI50 (HL-60) was 20.9 µM (inactive). The GI50 (HOP-62) was 38.3 µM (inactive), the GI50 (HOP-92) was 23.8 µM (inactive) and the GI50 (HT-29) was 33 µM (inactive). For the same molecule, the GI50 (Hs-578T) was 13.1 µM (inactive), the GI50 (IGROV-1) was 45.2 µM (inactive) and the GI50 (K562) was 34.4 µM (inactive). The GI50 (KM12) was 28.2 µM (inactive), the GI50 (LOX IMVI) was 22.3 µM (inactive) and the GI50 (M14) was 38.7 µM (inactive). The GI50 (MDA-MB-231) was 73.6 µM (inactive), the GI50 (MDA-MB-435) was 28 µM (inactive) and the GI50 (MDA-N) was 29.5 µM (inactive). For the same molecule, the GI50 (MOLT-4) was 16.1 µM (inactive), the GI50 (Malme-3M) was 14.2 µM (inactive) and the GI50 (NCI-H226) was 42.4 µM (inactive). For the same molecule, the GI50 (NCI-H23) was 33.3 µM (inactive), the GI50 (NCI-H460) was 33 µM (inactive) and the GI50 (NCI-H522) was 18 µM (inactive). For the same molecule, the GI50 (NCI/ADR-RES) was 35.6 µM (inactive), the GI50 (OVCAR-3) was 25.2 µM (inactive) and the GI50 (OVCAR-4) was 28.4 µM (inactive). For the same molecule, the GI50 (OVCAR-5) was 60.4 µM (inactive), the GI50 (OVCAR-8) was 34.8 µM (inactive) and the GI50 (PC-3) was 35.5 µM (inactive). For the same molecule, the GI50 (RXF 393) was 20.8 µM (inactive), the GI50 (SF-268) was 19.3 µM (inactive) and the GI50 (SF-295) was 34.4 µM (inactive). For the same molecule, the GI50 (SK-MEL-28) was 38.8 µM (inactive), the GI50 (SK-MEL-2) was 18.6 µM (inactive) and the GI50 (SK-MEL-5) was 20 µM (inactive). For the same molecule, the GI50 (SN12C) was 39.5 µM (inactive), the GI50 (SNB-19) was 95.7 µM (inactive) and the GI50 (SR) was 21.3 µM (inactive). The GI50 (SW-620) was 33.1 µM (inactive), the GI50 (T47D) was 39.1 µM (inactive) and the GI50 (TK-10) was > 100 µM (inactive). The GI50 (U-251) was 26.8 µM (inactive), the GI50 (UACC-257) was 40.3 µM (inactive) and the GI50 (UACC-62) was 36.1 µM (inactive). The GI50 (UO-31) was 54.2 µM (inactive).
For `CCOP(=O)(O)C1C(CO)OC(n2ccc(=O)[nH]c2=O)C1O` (configuration not stated), the GI50 (786-0) was > 100 µM (inactive), the GI50 (A498) was > 100 µM (inactive) and the GI50 (A549) was > 100 µM (inactive). For the same molecule, the GI50 (ACHN) was > 100 µM (inactive), the GI50 (BT-549) was > 100 µM (inactive) and the GI50 (CAKI-1) was > 100 µM (inactive). The GI50 (CCRF-CEM) was > 100 µM (inactive), the GI50 (EKVX) was > 100 µM (inactive) and the GI50 (HCC 2998) was > 100 µM (inactive). For the same molecule, the GI50 (HCT-116) was > 100 µM (inactive), the GI50 (HCT-15) was > 100 µM and the GI50 (HL-60) was > 100 µM (inactive). The GI50 (HOP-62) was > 100 µM (inactive), the GI50 (HOP-92) was > 100 µM (inactive) and the GI50 (HT-29) was > 100 µM (inactive). For the same molecule, the GI50 (Hs-578T) was > 100 µM (inactive), the GI50 (IGROV-1) was > 100 µM (inactive) and the GI50 (K562) was > 100 µM (inactive). For the same molecule, the GI50 (KM12) was > 100 µM (inactive), the GI50 (LOX IMVI) was > 100 µM (inactive) and the GI50 (M14) was > 100 µM (inactive). For the same molecule, the GI50 (MDA-MB-231) was > 100 µM (inactive), the GI50 (MDA-N) was > 100 µM (inactive) and the GI50 (MOLT-4) was > 100 µM (inactive). The GI50 (Malme-3M) was > 100 µM (inactive), the GI50 (NCI-H226) was > 100 µM (inactive) and the GI50 (NCI-H460) was > 100 µM (inactive). For the same molecule, the GI50 (NCI-H522) was > 100 µM (inactive), the GI50 (OVCAR-3) was > 100 µM (inactive) and the GI50 (OVCAR-4) was > 100 µM (inactive). The GI50 (OVCAR-8) was > 100 µM (inactive), the GI50 (PC-3) was > 100 µM (inactive) and the GI50 (RPMI-8226) was > 100 µM (inactive). The GI50 (RXF 393) was > 100 µM (inactive), the GI50 (SF-268) was > 100 µM (inactive) and the GI50 (SF-295) was > 100 µM (inactive). For the same molecule, the GI50 (SF-539) was > 100 µM (inactive), the GI50 (SK-MEL-28) was > 100 µM (inactive) and the GI50 (SK-MEL-2) was > 100 µM (inactive). For the same molecule, the GI50 (SK-MEL-5) was > 100 µM (inactive), the GI50 (SN12C) was > 100 µM (inactive) and the GI50 (SNB-19) was > 100 µM (inactive). The GI50 (SNB-75) was > 100 µM (inactive), the GI50 (SR) was > 100 µM (inactive) and the GI50 (SW-620) was > 100 µM (inactive). The GI50 (T47D) was > 100 µM (inactive), the GI50 (TK-10) was > 100 µM (inactive) and the GI50 (UACC-257) was > 100 µM (inactive). For the same molecule, the GI50 (UACC-62) was > 100 µM (inactive) and the GI50 (UO-31) was > 100 µM (inactive).
